Test results: US20210353784A1, “DETECTING AND TREATING CANCERS USING CELL PENETRANT MTP53-OLIGOMERIZATION-DOMAIN PEPTIDE” (priority 2020, published 2021)
Read-outs that look alike come from different tables or passages of the source.

Assays:
[1] = tested on: MDA-MB-468 cells compared to MCF7 cells; details: 2 h
Procedure: FlowJo software was used to analyze the cytometric data.
The cellular uptake of Cy5p53Tet in these two cell lines was also measured using flow cytometry.
In Vitro Cy5p53Tet Cellular Uptake by Flow Cytometry. Fluorescence-activated cell-sorting (FACS) was used to determine the cellular uptake of Cy5p53Tet. MCF7 and MDA-MB-468 cells were seeded in six-well plates at a density of 5×10^5 cells/well and incubated at 37° C. overnight. On the following day, media were replaced with fresh media containing vehicle control or 100 or 500 nM Cy5p53Tet and further incubated at 37° C. for 2 h. Cells were washed two times with PBS and trypsinized at 37° C. for 5 min. Trypsin was neutralized by adding media, and the cell suspension was spun down. Cell pellets were washed with PBS and resuspended in PBS. FACS was performed on a FACScan (BD Biosciences), processing 2×10^4 events for each sample.

[2] = tested on: MDA-MB-468.shp53 cells; experiment: Cy5p53Tet uptake in MDA-MB-468 shp53 cells with or without mtp53 depletion (live cell imaging); format: cell-based, Human; details: 500 nM
[3] = molecular target: mtp53 R273H (Homo sapiens, UniProt P04637, R273H); experiment: Co-immunoprecipitation assay with purified mtp53 R273H; format: binding; details: anti-p53 antibody sample; molar ratio 1:1; not by normal IgG
Procedure: Anti-p53 DO1 antibody-coupled magnetic beads were used to pull down Cy5p53Tet/mtp53 complex, and normal mouse IgG-coupled magnetic beads were used as a control.
To experimentally determine if Cy5p53Tet binds to mtp53 R273H, a co-immunoprecipitation assay was performed using purified mtp53 mixed with Cy5p53Tet in a molar ratio of 1:1 (FIG. 3C). The co-immunoprecipitation was carried out using anti-p53 antibody or nonspecific IgG.
Co-immunoprecipitation Assay. Magnetic beads were used for co-immunoprecipitation assays, and 50 μL of the bead suspension was placed in each sample. The beads were washed twice with 1×PBS-0.1% Tween-20 by vortexing for 10 s. The beads were resuspended in 1×PBS-0.1% Tween-20 with either 1 μg of anti-p53 DO1 antibody or 1 μg of normal mouse IgG at a final volume of 100 μL. The tubes were incubated at room temperature for 10 min with continuous mixing. The beads were washed three times with 1×PBS-0.1% Tween-20, and 1 μg of purified mtp53 R273H and 100 ng of Cy5p53Tet peptide were incubated with the immobilized antibody at 4° C. for 150 min with constant rotation. Beads were pelleted and then washed with 1 mL 1×PBS-0.1% Tween-20 four times at room temperature. Bound proteins were eluted by incubating in 2×SDS Laemmli sample buffer containing 0.2 M DTT, heated at 95° C. for 10 min, and loaded on 15 or 10% polyacrylamide gel.

**Q.** “H-CysCy5-RKKRRQRRGEYFTLQIRGRERFEMFRELNEALELK-OH (N-terminal Cy5; Synthetic peptide based on p53 protein) [Cy5p53Tet]” was tested. Which “geometric MFI, mtp53-expressing MDA-MB-468 cells vs MCF7 cells” value ([1]; 100 nM) did it give?
**A.** Its value is 1.58 fold.

**Q.** And the “geometric MFI, mtp53-expressing MDA-MB-468 cells vs MCF7 cells” value ([1]; 500 nM)?
**A.** The value was 1.65 fold.

**Q.** And the “reduction of the Cy5p53Tet signal upon mtp53 depletion (relative ROI intensity)” value (shortened to “reduction … (relative ROI intensity)”) ([2]; 30 min)?
**A.** Its value is 61%.

**Q.** What about the “reduction … (relative ROI intensity)” value ([2]; 2 h) of the same substance?
**A.** The value was 63%.

**Q.** What about the “reduction … (relative ROI intensity)” value ([2]; 4 h) of the same substance?
**A.** Its value is 67%.

**Q.** What about the “difference of Cy5p53Tet signal between knockdown and control cells” value ([2]; 24 h) of the same substance?
**A.** Its value is “no statistically significant difference”.

**Q.** And the “pull-down of Cy5p53Tet with mtp53 R273H” value [3]?
**A.** Its value is “significantly pulled down”.
